Measured values published in US6131226A, “1,4-dihydropyridine compounds as bradykinin antagonists” (Pfizer Inc., priority 1996, dated 2000).

System: bradykinin-induced plasma leakage in rat urinary bladder
Assay: bradykinin-induced plasma leakage test in rat urinary bladder
Format: in vivo
Settings: test compound at a concentration of 1.5 μM, i.v. 3 ml/kg, bradykinin 10 nmol/kg i.v.
Method: The bradykinin antagonist activity of the dihydropyridine compounds in vivo is evaluated by a plasma leakage test. This test essentially involve determining the concentration of the individual compound required to reduce by 50% the amount of bradykinin-induced plasma leakage in rat urinary bladder, thereby affording characteristic ED50 values for each compounds tested.
More specifically, the assay is carried out as follows. 3.5-week old male Sprague-Dawlew rats are purchased from Charles River Japan Inc. The rats are fed on stock diet (CRF from Charles River Japan, Inc.) and maintained under the standard conditions (temperature, 23±1° C. and humidity 55±5%) for at least 3 days. The rats are fasted overnight prior to the experiments. Each test group consists of 5 rats. […]
Captopril (5 mg/kg of body weight) is intraperitoneally (i.p.) injected to the rats, and 20 min later the rats are anesthetized by an administration of Nembutal (Abbott) ([…] of body weight). […] The absorbance of the extract is measured spectrophotometrically at 605 nm to determined the dye concentration. The effect of the individual test compound is calculated as a percentage of the amount of Evans blue leaked into the urinary bladder as compared to the control (saline for the test compounds).

Compound: COC(=O)C1=C(CCc2ccccc2OC)NC(CC(=O)N2CCN(C3CC4CCC(C3)N4C)CC2)=C(C(=O)OC)C1c1c(Cl)cccc1Cl (stereo not shown) [dimethyl 4-(2,6-dichlorophenyl)-6-[2-(2-methoxyphenyl)ethyl]-2-[4-(8-methyl-8-azabicyclo[3.2.1]oct-3-yl)-1-piperazinyl]carbonylmethyl-1,4-dihydropyridine-3,5-dicarboxylate]
- inhibition of urinary bladder leakage (Evans blue): did not show significant in vivo activity
